Article PMC11478212, “Antitumoral and Antiproliferative Potential of Synthetic Derivatives of Scorpion Peptide IsCT1 in an Oral Cavity Squamous Carcinoma Model” (Molecules, 2024)

How the values were obtained:
normal FN1 cells [1] = test: CFSE-DA proliferation assay (flow cytometry); format: cell-based, human; details: 24 h, IsCT-P and AC-AFPK-IsCT1 at IC50, other peptides at 100 µM, mean ± SD of three independent experiments
Method: Figure 2 Assessment of the cellular proliferative index was conducted using flow cytometry following a 24 h treatment with synthetic analogs of the IsCT1 peptide. The treatments were performed using the IC50 values obtained for the IsCT-P and AC-AFPK-IsCT1 peptides and at a concentration of 100 µM for the other peptides. (a) Representative histograms of the proliferative index were analyzed using WinMDI 5.0 software. Each color in the histogram represents a new cell population. (b) Bar graphs represent the mean ± SD of the proliferative index for SCC-9 tumor cells derived from three independent experiments. (c) Bar graphs display the mean ± SD of the proliferative index for SCC-25 tumor cells based on three independent experiments. (d) Bar graphs represent the mean ± SD of the proliferative index for normal FN1 cells from three independent experiments. […] Statistical differences were determined using ANOVA and Tukey–Kramer multiple comparison tests. […]
Tumor (SSC-9 and SSC-25) and normal cells (FN1 and J-774) were plated in 24-well plates at a density of 10^5 cells/mL for 24 h. […] Readings were performed on a FACScanto flow cytometer (BD, Franklin Lakes, NJ, USA) with the number of events set to 10,000 events, and histograms were acquired and analyzed using ModFit LT 5.0 software.

normal FN1 cells [2] = test: Mitochondrial membrane electrical potential (ΔΨm) by flow cytometry; format: cell-based, human; details: 24 h, IsCT-P and AC-AFPK-IsCT1 at IC50, others 100 µM, MitoRed, compared to control cells, mean ± SD of three independent experiments
Method: Figure 4 Analysis of mitochondrial electrical potential (ΔΨm) using flow cytometry following a 24 h treatment with synthetic analogs of IsCT1 peptides. The indicated cells were treated at the IC50 values obtained for the IsCT-P and AC-AFPK-IsCT1 peptides and at a concentration of 100 µM for the other peptides. (a) Representative histograms of cell distribution according to ΔΨm; (b) bar graph showing ΔΨm expressed as the mean ± SD of three independent experiments of SCC-9 tumor cells; (c) bar graph showing ΔΨm expressed as the mean ± SD of three independent experiments of SCC-25 tumor cells; (d) bar graph showing ΔΨm expressed as the mean ± SD of three independent experiments of normal FN1 cells; (e) bar graph showing ΔΨm expressed as the mean ± SD of three independent experiments of normal J774 cells. Statistical differences were obtained using ANOVA and Tukey–Kramer multiple comparison tests. * p < 0.05, ** p < 0.01, and *** p < 0.001 denote significance. ns = not significant.
Tumor (SSC-9 and SSC-25) and normal cells (FN1 and J-774) were subjected to treatment for a period of 24 h at the peptides’ IC50 concentrations. After treatment, the cells were trypsinized, centrifuged at 1200 rpm for 5 min, the supernatant was discarded, and the cells were resuspended in complete medium containing MitoRed™ (Sigma-Aldrich, USA) (200 nM/L). […]

SCC-9 tumor cells = test: Cellular marker expression by flow cytometry; format: cell-based
Method: (§1) Figure 6 Analysis of marker expression in tongue squamous cell carcinoma tumor cells. The expression of markers was quantified using flow cytometry after 24 h of treatment with the AC-AFPK-IsCT1 peptide at its IC50 value determined for each cell line. (a) Representative density plots display the distribution of cells with fluorescence intensity; (b) marker expression in SCC-9 tumor cells; (c) marker expression in SCC-25 tumor cells. Bar graphs present protein expression levels as the mean ± SD from three independent experiments. Values are expressed as the mean ± SD from three independent experiments. Statistical differences were determined using ANOVA and Tukey–Kramer multiple comparison tests. * p < 0.05 and *** p < 0.001 denote significance. ns = not significant.
(§2) Tumor cells SSC-9 and SSC-25, both treated with the peptides at their IC50 concentrations for 24 h and control groups (10^5 cells/mL), were incubated at 4 °C for 1 h with 1 μg of specific antibodies conjugated with Alexa Fluor™ 488. Various markers associated with cell death and cell cycle progression, such as caspase 3 and 8, cyclin D1, PCNA, p53, and TNF-α conjugated with Alexa Fluor™ 488, were used as indicated. For intracellular markers, TritonX 0.1% was used for 30 min at room temperature before antibody labeling. Following centrifugation at 1500 rpm and washing with PBS, the supernatant was discarded and the pellet was resuspended in 200 μL of FACS buffer. The reading and analysis of receptor expression on the cell surface of tumor cells were carried out using a FACScanto flow cytometer (BD) with fluorescence intensity FL1-H for the number of events (10,000 events), and the dot plots were acquired and analyzed using FCS Express software.

SCC-25 tumor cells = test: Cellular marker expression by flow cytometry; format: cell-based
Method: as §1, §2

[3] = 24 h at IC50, compared to control cells, mean ± SD of three independent experiments
[4] = 24 h at IC50, mean ± SD of three independent experiments

| Substance | reduction in the proliferative index (normal FN1 cells [1]) [%] | decrease in ΔΨm (normal FN1 cells [2]) | change in Cyclin-D1 expression (SCC-9 tumor cells; 24 h at IC50) | increase in caspase 3 expression (SCC-9 tumor cells; [3]) [%] | increase in caspase 8 expression (SCC-9 tumor cells; [3]) [%] | increase in cells expressing TNF-α (SCC-9 tumor cells; [3]) [%] | increase in cells expressing p53 (SCC-9 tumor cells; [3]) [%] | reduction in PCNA expression (SCC-9 tumor cells; [3]) [%] | decrease in Cyclin D1 expression (SCC-25 tumor cells; [3]) [%] | decrease in PCNA expression (SCC-25 tumor cells; [3]) [%] | increase in TNF-α-expressing cells (SCC-25 tumor cells; [4]) [%] | increase in caspase 3 expression (SCC-25 tumor cells; [4]) [%] | increase in caspase 8 expression (SCC-25 tumor cells; [4]) [%] | increase in p53-expressing cells (SCC-25 tumor cells; [4]) [%] |
| --- | --- | --- | --- | --- | --- | --- | --- | --- | --- | --- | --- | --- | --- | --- |
| H-ILKKIWKPIKKLF-NH2 [IsCT-P] | 37.6 ± 3.9 |  |  |  |  |  |  |  |  |  |  |  |  |  |
| Ac-ALGKFWPKIKSLF-NH2 [AC-AFPK-IsCT1] |  | No changes | No significant changes | 67 ± 4.9 | 61.6 ± 3 | 69.2 ± 2.6 | 60.7 ± 1.6 | 21.4 ± 0.4 | 15 ± 1.3 | 22.8 ± 2.5 | 85.6 ± 8.4 | 86.2 ± 7 | 82.3 ± 5.5 | 83.5 ± 1.8 |
